According to US12617762B2, “Carboxy derivatives with antiinflamatory properties” (Sitryx Therapeutics Limited, priority 2019, dated 2026):
Like-named read-outs stand apart in the source and are kept apart here.

Legend:
Type in all cases: cell-based
[1] = system: IL-1β cytokine output from THP-1s; assay: THP-1 AlphaLISA IL-1β cytokine inhibition assay; conditions: for IC50: Homo sapiens, THP-1, differentiated THP-1 cells, LPS then nigericin; for IL-1β lowering, result in words: THP-1 IL-1β assay
Summary of the method: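 THP-1 cells differentiated with PMA for 72 h, pre-incubated with compound 30 min, then LPS-primed 24 h and Nigericin-stimulated 1 h (37° C./5% CO2). Supernatant IL-1β measured by AlphaLISA; percentage inhibition normalised to +LPS (high) and −LPS (low) plate controls.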

[2] = system: NRF2 (nuclear factor erythroid 2-related factor 2); assay: NRF2 +/-GSH activation assay (DiscoverX PathHunter NRF2 translocation kit, U2OS cells); conditions: for NRF2 activation +GSH Emax / NRF2 activation −GSH Emax: normalised to DMF high control
Summary of the method: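 U2OS PathHunter eXpress cells, 24 h post-plating, treated with compound ±GSH (+GSH arm: 30 min compound–GSH pre-incubation, 6 mM working GSH), then 6 h at 37 °C. NRF2 nuclear translocation read by enzyme-fragment-complementation chemiluminescence; % activation normalised to DMF high and untreated low controls.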

[3] = system: IL-6 cytokine output from THP-1s; assay: THP-1 AlphaLISA IL-6 cytokine inhibition assay; conditions: Homo sapiens, LPS then nigericin
Description: The cytokine inhibition profiles of compounds of formula (I) were determined in a differentiated THP-1 cell assay. All assays were performed in RPMI-1640 growth medium (Gibco), supplemented with 10% fetal bovine serum (FBS; Gibco), 1% penicillin-streptomycin and 1% sodium pyruvate unless specified otherwise. The IL-1β cytokine inhibition assay was run in a background of differentiated THP-1 cells as described below. All reagents described were from Sigma-Aldrich unless specified otherwise. Compounds were prepared as 10 mM DMSO stocks.
THP-1 cells were expanded as a suspension up to 80% confluence in appropriate growth medium. Cells were harvested, suspended, and treated with an appropriate concentration of phorbol 12-myristate 13-acetate (PMA) over a 72 hr period (37° C./5% CO2).
Following 72 hrs of THP-1 cell incubation, cellular medium was removed and replaced with fresh growth media containing 1% of FBS. Working concentrations of compounds were prepared separately in 10% FBS treated growth medium and pre-incubated with the cells for 30 minutes (37° C./5% CO2). Following the 30 minute compound pre-incubation, THP-1s were treated with an appropriate concentration of LPS and the cells were subsequently incubated for a 24 hr period (37° C./5% CO2). An appropriate final concentration of Nigericin was then dispensed into the THP-1 plates and incubated for 1 hour (37° C./5% CO2) before THP-1 supernatants were harvested and collected in separate polypropylene 96-well holding plates.
Reagents from an IL-1β and IL-6 commercial kit (Perkin Elmer) were prepared and run according to the manufacturer's instructions. Subsequently, fluorescence signal detection in a microplate reader was measured (EnVision® Multilabel Reader, Perkin Elmer).
Percentage inhibition was calculated per cytokine by normalising the sample data to the high and low controls used within each plate (+/− LPS respectively).

[4] = +GSH, 30 minute compound-GSH pre-incubation, read-out: NRF2 activation +GSH EC50
[5] = −GSH, U2OS PathHunter cells, 6 hours compound treatment, read-out: NRF2 activation −GSH EC50
[6] = THP-1, differentiated THP-1 cells

Structure (SMILES)	IC50 [1]	EC50 [2, 4]	NRF2 activation +GSH Emax ([2]; +GSH)	EC50 [2, 5]	NRF2 activation −GSH Emax ([2]; −GSH)	IC50 [3, 6]	IL-1β lowering, result in words [1]	IC50 ([3]; differentiated THP-1 cells)
C=C(Cc1nc(C(C)(C)CCCCCC)no1)C(=O)O [Example 26, 2-((3-(2-methyloctan-2-yl)-1,2,4-oxadiazol-5-yl)methyl)acrylic acid]	36.3 µM	35.6 µM	137%	27.3 µM	205%	22.6 µM	–	–
C=C(Cc1nc(C(C)(C)c2ccc(Cl)cc2)no1)C(=O)O [Example 30, 2-((3-(2-(4-chlorophenyl)propan-2-yl)-1,2,4-oxadiazol-5-yl)methyl)acrylic acid]	53.3 µM	> 100 µM	12%	> 100 µM	36%	> 100 µM	not effective	–
C=C(Cc1nc(CC2CCCCC2)no1)C(=O)O [Example 32, 2-((3-(cyclohexylmethyl)-1,2,4-oxadiazol-5-yl)methyl)acrylic acid]	> 100 µM	> 100 µM	35%	50.1 µM	46%	> 100 µM	not effective	–
C#CCCCCCCc1noc(CC(=C)C(=O)O)n1 [Example 35, 2-((3-(oct-7-yn-1-yl)-1,2,4-oxadiazol-5-yl)methyl)acrylic acid]	> 100 µM	48.9 µM	55%	43.6 µM	91%	34.6 µM	not effective	–
C=C(Cc1nc(CCc2ccc(CC)cc2)no1)C(=O)O [Example 41, 2-((3-(4-ethylphenethyl)-1,2,4-oxadiazol-5-yl)methyl)acrylic acid]	45.4 µM	39.7 µM	103%	31.7 µM	135%	22.5 µM	–	–
C=C(Cc1nc(Cc2ccc(C3(C(F)(F)F)CC3)cc2)no1)C(=O)O [Example 48, 2-((3-(4-(1-(trifluoromethyl)cyclopropyl)benzyl)-1,2,4-oxadiazol-5-yl)methyl)acrylic acid]	40.2 µM	50.3 µM	61%	31 µM	120%	38.5 µM	–	–
C=C(Cc1ncc(CCCCCCCC)s1)C(=O)O [Example 55, 2-((5-octylthiazol-2-yl)methyl)acrylic acid]	14.9 µM	17.8 µM	163%	13.3 µM	276%	4.2 µM	–	–
C=C(Cc1nc(CCC#CCCCC)no1)C(=O)O [Example 57, 2-((3-(oct-3-yn-1-yl)-1,2,4-oxadiazol-5-yl)methyl)acrylic acid]	> 100 µM	49.9 µM	56%	41.1 µM	102%	24.1 µM	not effective	–
C=C(Cc1nc(CCCCCCCC(F)F)no1)C(=O)O [Example 58, 2-((3-(8,8-difluorooctyl)-1,2,4-oxadiazol-5-yl)methyl)acrylic acid]	36.9 µM	30.6 µM	105%	26.4 µM	149%	16 µM	–	–
C=C(Cc1nc(CCCCCC(C)C)no1)C(=O)O [Example 68, 2-((3-(6-methylheptyl)-1,2,4-oxadiazol-5-yl)methyl)acrylic acid]	19.5 µM	–	–	–	–	5.7 µM	–	–
C=C(Cc1nc(Cc2ccc(CC(C)(C)C)cc2)no1)C(=O)O [Example 69, 2-((3-(4-neopentylbenzyl)-1,2,4-oxadiazol-5-yl)methyl)acrylic acid]	48.6 µM	–	–	–	–	10.1 µM	–	–
C=C(Cc1nc(-c2ccc(C(F)(F)CC)cc2)no1)C(=O)O [Example 71, 2-((3-(4-(1,1-difluoropropyl)phenyl)-1,2,4-oxadiazol-5-yl)methyl)acrylic acid]	54.9 µM	37.1 µM	146%	28.8 µM	178%	8.3 µM	–	–
C=C(Cc1nc(-c2ccc(CCC(F)(F)F)cc2)no1)C(=O)O [Example 73, 2-((3-(4-(3,3,3-trifluoropropyl)phenyl)-1,2,4-oxadiazol-5-yl)methyl)acrylic acid]	> 100 µM	–	–	–	–	10.4 µM	not effective	–
C=C(Cc1nc(-c2ccc(CCC3CC3)cc2)no1)C(=O)O [Example 76, 2-((3-(4-(2-cyclopropylethyl)phenyl)-1,2,4-oxadiazol-5-yl)methyl)acrylic acid]	28.2 µM	–	–	–	–	5.1 µM	–	–
C=C(Cc1nc(C2(c3ccc(OC(F)F)cc3)CC2)no1)C(=O)O [Example 78, 2-((3-(1-(4-(difluoromethoxy)phenyl)cyclopropyl)-1,2,4-oxadiazol-5-yl)methyl)acrylic acid]	24.3 µM	–	–	–	–	> 100 µM	–	–
C=C(Cc1nc(C2(c3ccc(OCCCC)cc3)CC2)no1)C(=O)O [Example 80, 2-((3-(1-(4-butoxyphenyl)cyclopropyl)-1,2,4-oxadiazol-5-yl)methyl)acrylic acid]	37.2 µM	–	–	–	–	9.6 µM	–	–
C=C(Cc1nc(CCCCCC(F)(F)CC(F)(F)F)no1)C(=O)O [Example 87, 2-((3-(6,6,8,8,8-pentafluorooctyl)-1,2,4-oxadiazol-5-yl)methyl)acrylic acid]	> 100 µM	48.6 µM	70%	41.4 µM	95%	31.7 µM	not effective	–
C=C(Cc1nc(-c2ccc(CCCC)cc2)co1)C(=O)O [Example 101, 2-((4-(4-butylphenyl)oxazol-2-yl)methyl)acrylic acid]	52.4 µM	–	–	–	–	4.6 µM	–	–
C=C(Cc1ncc(CCCCCCCC)cn1)C(=O)O [Example 106]	67.8 µM	24.6 µM	101%	18.6 µM	143%	–	–	39.3 µM
C=C(Cc1nc(C2(c3ccc(OC)c(Cl)c3)CC2)no1)C(=O)O [Example 140, 2-((3-(1-(3-chloro-4-methoxyphenyl)cyclopropyl)-1,2,4-oxadiazol-5-yl)methyl)acrylic acid]	29.5 µM	–	–	–	–	–	–	> 100 µM
C=C(Cc1nc(C2(c3ccc(C)c(Cl)c3)CC2)no1)C(=O)O [Example 141, 2-((3-(1-(3-chloro-4-methylphenyl)cyclopropyl)-1,2,4-oxadiazol-5-yl)methyl)acrylic acid]	> 56.2 µM	20.1 µM	100%	16.7 µM	177%	–	–	32.4 µM
